Reference: patent publication US20100093733A1, “AMIDE AND UREA DERIVATIVES FOR THE TREATMENT OF METABOLIC DISEASES” (PROSIDION LIMITED, priority 2007, published 2010)

Target: T1, human DGAT1 (Homo sapiens, UniProt O75907)
T1 construct: Full length human DGAT10RF (1467 bp); 6xHis (pFastBac HTa vector leader) (N); made in house; host or cells: Sf21 insect cells (baculovirus); microsome fraction
T1 sequence (O75907 1-488): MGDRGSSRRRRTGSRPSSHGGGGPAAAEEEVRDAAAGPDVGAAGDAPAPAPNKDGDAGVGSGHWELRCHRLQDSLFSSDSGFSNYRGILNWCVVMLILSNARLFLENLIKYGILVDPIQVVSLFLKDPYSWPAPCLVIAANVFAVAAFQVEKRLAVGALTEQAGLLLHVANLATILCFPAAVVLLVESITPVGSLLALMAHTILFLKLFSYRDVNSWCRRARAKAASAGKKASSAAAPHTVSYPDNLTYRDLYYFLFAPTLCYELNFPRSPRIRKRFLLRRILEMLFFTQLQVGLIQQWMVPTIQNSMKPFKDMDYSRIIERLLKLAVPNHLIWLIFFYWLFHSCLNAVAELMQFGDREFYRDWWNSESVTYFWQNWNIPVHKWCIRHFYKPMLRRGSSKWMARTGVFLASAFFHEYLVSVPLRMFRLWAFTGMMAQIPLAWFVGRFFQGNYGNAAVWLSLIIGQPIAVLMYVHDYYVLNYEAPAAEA
Assay: Evaluation of DGAT1 enzyme inhibition (14C-oleoyl CoA, TLC of triglyceride)
Assay type: biochemical
Conditions: human DGAT1 microsomes from Sf21 cells, 30° C., 20 min
Experimental: DGAT assays for compound screening were carried out in 96-well round bottom plates in a total volume of 50 μl containing 25 mM Hepes pH 7.4, 150 mM NaCl, 2 mM MgCl2, 20 mM sodium fluoride, 1 mM dithiothreitol, 0.5 mg/mL BSA, 0.1% Triton X100, 200 uM DAG (1,2-dioleoyl-sn-glycerol) and 15 μM [^14C] oleoyl CoA (specific activity 50-60 mCi/mmol) and a range of inhibitor concentrations in 1% DMSO. Reactions were initiated by the addition of human DGAT1 microsomes (0.4 μg/well) followed by incubation at 30° C. for 20 min. At the end of incubation, reactions were stopped by the addition of 5 μl 0.5N HCl, then 4 μl of each reaction was spotted directly onto a silica gel 60 (20×20 cm) TLC plate pre-scored to give twenty 1 cm wide lanes for lipid separation. […]
Following chromatography, the triglyceride spots were cut out and placed in a scintillation vial for counting. The percentage inhibition values were calculated relative to control and where appropriate IC50 values were derived using the 4 parameter logistic model in XL fit.
The enzyme source used for the assay was prepared from Sf21 cells infected with baculovirus expressing human DGAT1. Full length human DGAT10RF (1467 bp) (Nucleotide Accession: NM 012079; Protein Accession: NP036211) was PCR amplified from human liver cDNA (Marathon Ready) and cloned into pFastBac HTa vector (Life Technologies) containing a 6-Histidine N-terminus. […]

Row | IC50 [nM] | SMILES
1 | 1800 | COC(=O)[C@H]1CC[C@H](c2ccc(NC(=O)c3cc4ccccc4s3)cn2)CC1 [Example 114, Trans-4-{5-[(Benzo[b]thiophene-2-carbonyl)amino]-pyridin-2-yl}-cyclohexane-carboxylic acid methyl ester]
2 | 1300 | COc1ccc(C)cc1NC(=O)Nc1ccc([C@H]2CC[C@](O)(CC(=O)O)CC2)cc1 [Example 137, Syn-(1-Hydroxy-4-{4-[3-(2-methoxy-5-methylphenyl)-ureido]phenyl}-cyclohexyl)-acetic acid]
